Experiments:
[1] = tested on: immortalized human meibomian gland epithelial cells; experiment: Cellular morphology (terminal maturation, holocrine-like secretion); format: cell-based; details: azithromycin 10 μg/ml
Procedure: As an example of these experiments, immortalized human meibomian gland epithelial cells were cultured in the presence or absence of 10% fetal bovine serum. Cells were treated with an ethanol vehicle or azithromycin (10 μg/ml; Santa Cruz Biotechnology) for varying time periods. Cellular morphological appearance was recorded, cells were counted with a hemocytometer, and lipid accumulation was assessed by staining the cells with LipidTOX green neutral lipid stain (Invitrogen, Grand Island, N.Y.), according to reported methods. Staining fluorescent intensities were quantified by using ImageJ (http://rsbweb.nih.gov/ij/index.html). Statistical analyses were performed with Student's t-test (two-tailed, unpaired). Immortalized human meibomian gland epithelial cells ([…]; passages 20-22) were cultured in the presence or absence of 10% fetal bovine serum. Cells were treated with the ethanol vehicle or azithromycin (10 μg/mL) for varying periods. Cellular morphological appearance was recorded, cells were counted with a hemocytometer, and lipid accumulation was assessed by staining cells with LipidTOX green neutral lipid stain (Invitrogen Corp). Staining fluorescent intensities were quantified using ImageJ software (http://rsbweb.nih.gov/ij/index.html). Statistical analyses were performed with t test (2-tailed, unpaired).

[2] = tested on: human meibomian gland epithelial cells; experiment: Filipin III staining of free (unesterified) cholesterol; format: cell-based; details: 10 μg/ml, 5 days
Procedure: This section outlines the materials and methods that produced the experimental data. Immortalized human meibomian gland epithelial cells were cultured in the presence or absence of 10% fetal bovine serum. After reaching 80-90% confluence (˜5×10^6/well), cells were exposed to the vehicle (0.02% ethanol) or azithromycin (10 μg/ml) for 5 days and then processed for histological and biochemical procedures.
(§1) Cell numbers were enumerated with a hemocytometer. Cellular lipid and lysosome accumulation were examined by staining cells with: Filipin III (a fluorometric probe for identifying unesterified cholesterol), LipidTOX green neutral lipid stain, and LysoTracker® Red DND-99 (a fluorescent technique designed for labeling acidic organelles such as lysosomes). Lysosomal lamellar bodies were identified by transmission electron microscopy. In brief, after culture and treatment on 24 mm polycarbonate membrane transwell inserts (0.4 μm pore size), cells were fixed in a solution of 2% formaldehyde+2.5% glutaraldehyde, in 0.08 M sodium cacodylate buffer, pH 7.4, post-fixed with 2% osmium tetroxide in 0.1 M sodium cacodylate buffer, and stained en bloc with 2% aqueousuranyl acetate. […] Lipids were then evaluated with high-performance thin-layer chromatography. […] Image data were quantified with ImageJ (http://rsbweb.nib.gov/ij/index.html). […]

[3] = tested on: human meibomian gland epithelial cells; experiment: LysoTracker Red staining of lysosomes; format: cell-based; details: 10 μg/ml, 5 days
Procedure: This section outlines the materials and methods that produced the experimental data. Immortalized human meibomian gland epithelial cells were cultured in the presence or absence of 10% fetal bovine serum. […]
as §1, with “acetate. Samples were then dehydrated in graded ethyl alcohol solutions and embedded by using the tEPON-812 epoxy resin kit. Cross sections ([…]) were stained with 1% toluidine blue in 1% sodium tetraborate solution.” for “acetate.”

[4] = tested on: human meibomian gland epithelial cells; experiment: Transmission electron microscopy of lysosomal lamellar bodies; format: cell-based; details: 10 μg/ml, 5 days
Source text: Cell numbers were enumerated with a hemocytometer. Cellular lipid and lysosome accumulation were examined by staining cells with: Filipin III (a fluorometric probe for identifying unesterified cholesterol), LipidTOX green neutral lipid stain, and LysoTracker® Red DND-99 (a fluorescent technique designed for labeling acidic organelles such as lysosomes). Lysosomal lamellar bodies were identified by transmission electron microscopy. In brief, after culture and treatment on 24 mm polycarbonate membrane transwell inserts (0.4 μm pore size), cells were fixed in a solution of 2% formaldehyde+2.5% glutaraldehyde, in 0.08 M sodium cacodylate buffer, pH 7.4, post-fixed with 2% osmium tetroxide in 0.1 M sodium cacodylate buffer, and stained en bloc with 2% aqueousuranyl acetate. Samples were then dehydrated in graded ethyl alcohol solutions and embedded by using the tEPON-812 epoxy resin kit. Cross sections ([…]) were stained with 1% toluidine blue in 1% sodium tetraborate solution. Ultra-thin sections (60-90 nm) were imaged with a transmission electron microscope interfaced with a digital CCD camera. For biochemical assessments, cellular lipids were extracted with chloroform and methanol from samples with the same amount of protein. Lipids were then evaluated with high-performance thin-layer chromatography. […] Image data were quantified with ImageJ (http://rsbweb.nib.gov/ij/index.html). […]

[5] = topical 0.5, 1.0 and 1.5% AZM eye drops, for 24 hours; cited from earlier work
LNCaP cells = experiment: Immunoblot of JAK2/STAT5 pathway in positive control cells; format: cell-based
Procedure: The disclosure turns now to sodium dodecyl sulfate-polyacrylamide gel, electrophoresis, and immunoblots. Cells were directly lysed in Laemmli buffer supplemented with 1% protease inhibitor cocktail (Sigma-Aldrich) and 5% β-mercaptoethanol (Sigma-Aldrich). Lysates were heated at 95° C. for 10 minutes, separated by sodium dodecyl sulfate-polyacrylamide gel electrophoresis on 10% Tris-glycine precast gels, and transferred to polyvinylidene difluoride membranes. Rabbit or mouse antibodies used were specific for phosphorylated Akt (p-Akt), pan-Akt, p-FoxO1, FoxO1, p-JAK2, JAK2, and β-actin; for p-ERK, ERK-2, STAT5, and the precursor form of SREBP-1; and for p-STAT5. Membranes were blocked with 5% bovine serum albumin in Tris-buffered saline containing 0.01% polysorbate 20. All primary antibodies were diluted to 1:1000 in blocking buffer except for p-Akt (1:4000), p-ERK (1:2000), ERK-2 (1:4000), SREBP-1 (1:200), and β-actin (1:10 000). Horseradish peroxidase-conjugated secondary antibodies were goat anti-rabbit IgG and Fc-specific goat anti-mouse IgG diluted to 1:5000. […]
FIGS. 9a, 9b, and 9c illustrate the effects of insulin-like growth factor 1 (IGF-1) and growth hormone (GH) on signaling pathways in human meibomian gland epithelial cells. […] Cell lysates were evaluated on immunoblotting. […]

[6] = tested on: immortalized human meibomian gland cells; experiment: 13-cis RA-induced late apoptosis/necrosis; format: cell-based

CC[C@H]1OC(=O)[C@H](C)[C@@H](O[C@H]2C[C@@](C)(OC)[C@@H](O)[C@H](C)O2)[C@H](C)[C@@H](O[C@@H]2O[C@H](C)C[C@H](N(C)C)[C@H]2O)[C@](C)(O)C[C@@H](C)CN(C)[C@H](C)[C@@H](O)[C@]1(C)O [Azithromycin]
terminal maturation and holocrine-like secretion [1]: promote terminal maturation
accumulation of free cholesterol (Filipin) [2]: significantly stimulates the accumulation
accumulation of lysosomes (LysoTracker) [3]: significantly stimulates the accumulation
lysosomal lamellar bodies [4]: many of these lysosomes appear to be onion-shaped lamellar bodies
tear concentration [5]: above 7 μg/ml

GH: human growth hormone
activation of JAK2/STAT5 pathway (LNCaP cells): activated the JAK2/STAT5 pathway

IGF-1: recombinant human insulin-like growth factor 1
13-cis RA-induced late apoptosis/necrosis [6]: attenuates

From patent US20200297820A1, “STIMULATION OF HUMAN MEIBOMIAN GLAND FUNCTION” (The Schepens Eye Research Institute, Inc., priority 2013, published 2020)
